Structures can show the parent of a compound that is named as a salt.
What was measured:
[1] = biological target: T1, guinea pig lung membranes (Cavia porcellus, UniProt P30547); assay: ^3 H-Substance P binding to guinea pig lung membranes; settings: at the concentration of 1 μg/ml; read-out: inhibition rate of ^3 H-Substance P binding to guinea pig lung membranes
T1 construct: The trachea and lung were removed and homogenized in ice-cold buffer; from tissue; host or cells: guinea pig (male Hartley strain) trachea and lung, crude membrane fraction
Description: ^3 H-Substance P Binding to Guinea Pig Lung Membranes Test Method
^3 H-Substance P Binding to Guinea Pig Lung Membranes
(a) Crude lung membrane preparation
Male Hartly strain guinea pigs were stunned and bled. The trachea and lung were removed and homogenized in ice-cold buffer (0.25M sucrose, 50 mM Tris-HCl pH 7.5, 0.1 mM EDTA) by using Polytoron (Kinematica). The homogenate was centrifuged (1000×g, 10 minutes) to remove tissue clumps and the supernatant was centrifuges (35000×g, 20 minutes) to yield pellet. The pellet was resuspended in buffer (5 mM Tris-HCl pH 7.5), homogenized with a teflon homogenizer and centrifuged (35000×g, 20 minutes) to yield pellet which was referred to as crude membrane fractions. The obtained pellet was resuspended in buffer (50 mM Tris-HCl pH 7.5) and stored at -70° C. until use.
(b) ^3 H-Substance P binding to preparation membrane
Frozen crude membrane fractions were thawed and resuspended in Medium 1 (50 mM Tris-HCl pH 7.5, 1 mM MnCl2, 0.02% BSA, 2 μg/ml chymostatin, 4 μg/ml leupeptin, 40 μg/ml bacitracin, 10 μM phosphoramidon). ^3 H-Substance P (1 nM) was incubated with 100 μl of the membrane preparations with or without test compounds in Medium 1 at 25° C. for 30 minutes in a final volume of 500 μl. At the end of the incubation period, 5 ml ice-cold 50 mM Tris-HCl buffer was added to each tube and its content was quickly filtered over a Wahtman GF/B glass filter (pretreated with 0.1% polyethylene imine for 3 hours prior to use) under aspiration. Each of the filters was then washed four times with 5 ml of ice-cold buffer (50 mM Tris-HCl pH 7.5). […] All data presented are specific binding defined as that displaceable by 5 μM unlabeled Substance P.

[2] = biological target: T2, h-NK1 receptors (Homo sapiens, UniProt P25103); assay: ^125 I-BH-Substance P binding to h-NK1 receptors; settings: at the concentration of 0.1 μg/ml; CHO cell membranes expressing h-NK1 receptors; read-out: inhibition rate of ^125 I-BH-Substance P binding to h-NK1 receptors
T2 construct: expressed in transfected cells; host or cells: CHO cells
Description: ^125 I-BH-Substance P Binding to h-NK1 Receptors Test Method
^125 I-BH-Substance P Binding to h-NK1 Receptors
(a) Crude CHO cell membrane preparation
CHO cells permanently expressing h-NK1 receptors were harvested and homogenized with a Dounce homogenizer at 4° C. in a buffer (0.25M sucrose, 25 mM Tris-HCl pH 7.4, 10 mM MgCl2, 1 mM EDTA, 5 μg/ml p-APMSF). The homogenate was centrifuged (500×g, 10 minutes), and the pellet was resuspended in the same buffer, homogenized, and centrifuged. The two supernatants were combined and centrifuged (100,000×g, 1 hour). The crude cell membranes thus isolated were resuspended in buffer (25 mM Tris-HCl pH 7.4, 10 mM MgCl2, 1 mM EDTA, 5 μg/ml p-APMSF) and stored at -80° C. until use.
(b) ^125 I-BH-Substance P binding to preparation membrane Cell membranes (6 μg/ml) were incubated with ^125 I-BH-Substance P (0.1 nM) with or without test compounds in 0.25 ml of Medium 2(50 mM Tris-HCl pH 7.4, 5 mM MnCl2, 20 μg/ml chymostatin, 40 μg/ml bacitracin, 4 μg/ml leupeptin, 5 μg/ml p-APMSF, 200 μg/ml BSA) at 22° C. for 90 minutes. At the end of the incubation period, the content was quickly filtered over a Wahtman GF/C glass filter (pretreated with 0.1% polyethylene imine for 3 hours prior to use) under aspiration. Each of the filters was then washed four times with 5 ml of buffer (50 mM Tris-HCl pH 7.4, 5 mM MnCl2). The radioactivity was counted by using Auto Gamma counter (Packerd RIASTAR 5420A). All data presented are specific binding defined as that displaceable by 3 μM unlabeled Substance P.

T1 sequence (P30547 whole entry): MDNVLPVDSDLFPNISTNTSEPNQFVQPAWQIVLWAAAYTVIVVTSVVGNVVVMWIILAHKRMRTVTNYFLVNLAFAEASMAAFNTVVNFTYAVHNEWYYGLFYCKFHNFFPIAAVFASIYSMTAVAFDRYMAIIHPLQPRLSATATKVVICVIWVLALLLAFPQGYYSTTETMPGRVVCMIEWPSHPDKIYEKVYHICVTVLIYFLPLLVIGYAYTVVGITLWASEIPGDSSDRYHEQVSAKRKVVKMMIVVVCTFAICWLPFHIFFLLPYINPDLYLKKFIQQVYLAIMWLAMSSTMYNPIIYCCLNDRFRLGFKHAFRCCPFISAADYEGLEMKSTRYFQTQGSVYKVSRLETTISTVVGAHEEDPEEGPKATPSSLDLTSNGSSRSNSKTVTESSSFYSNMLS
T2 sequence (P25103 whole entry): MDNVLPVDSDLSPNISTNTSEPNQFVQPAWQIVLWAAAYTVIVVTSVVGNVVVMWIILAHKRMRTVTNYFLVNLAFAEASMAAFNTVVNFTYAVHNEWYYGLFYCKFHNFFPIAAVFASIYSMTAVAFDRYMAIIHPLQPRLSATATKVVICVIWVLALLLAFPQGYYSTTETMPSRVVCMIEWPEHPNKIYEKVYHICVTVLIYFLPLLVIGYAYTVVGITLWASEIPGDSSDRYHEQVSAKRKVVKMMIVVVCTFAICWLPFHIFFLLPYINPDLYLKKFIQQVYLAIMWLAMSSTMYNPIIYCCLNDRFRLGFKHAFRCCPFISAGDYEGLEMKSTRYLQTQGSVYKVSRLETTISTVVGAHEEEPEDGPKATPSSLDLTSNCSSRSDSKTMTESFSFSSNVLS

Structure (SMILES) | inhibition at 1 µg/mL [1] [%] | inhibition at 0.1 µg/mL [2] [%]
O=C(CCc1c[nH]c2ccccc12)N1CCN(C(=O)c2cc(C(F)(F)F)cc(C(F)(F)F)c2)[C@H](Cc2ccccc2)C1 [Example 17-10, (2R)-2-Benzyl-1-[3,5-bis(trifluoromethyl)benzoyl]-4-[3-(1H-indol-3-yl)propionyl]piperazine] | > 90 | 
CC(C)(C)C(=O)Nc1nc(CN2CCN(C(=O)c3cc(C(F)(F)F)cc(C(F)(F)F)c3)[C@H](Cc3c[nH]c4ccccc34)C2)cs1 [Example 79-4] |  | > 90
CN(C)CC(=O)N1CCN(C(=O)c2cc(C(F)(F)F)cc(C(F)(F)F)c2)[C@H](Cc2c[nH]c3ccccc23)C1 [Example 24-4, (2R)-1-[3,5-Bis(trifluoromethyl)benzoyl]-2-(1H-indol-3-yl-methyl)-4-[2-(N,N-dimethylamino)acetyl]-piperazine hydrochloride] | > 90 | 
NC(=O)CN1CCN(C(=O)c2cc(C(F)(F)F)cc(C(F)(F)F)c2)[C@H](Cc2c[nH]c3ccccc23)C1 [Example 25-2, (^2 R)-1-[3,5-Bis(trifluoromethyl)benzoyl]-2-(1H-indol-3-yl-methyl)-4-(carbamoylmethyl)piperazine] |  | > 90
O=C(/C=C/C1CCCCC1)N1CCN(C(=O)c2cc(C(F)(F)F)cc(C(F)(F)F)c2)[C@H](Cc2c[nH]c3ccccc23)C1 [Example 17-50, (2R)-1-[3,5-Bis(trifluoromethyl)benzoyl]-4-[(3-cyclo-hexyl)-trans-acryloyl]-2-(1H-indol-3-yl-methyl)-piperazine] |  | > 90
Cc1ccc(C[C@@H]2CNCCN2C(=O)c2cc(C(F)(F)F)cc(C(F)(F)F)c2)cc1C [Example 24-8, (2R)-1-[3,5-Bis(trifluoromethyl)benzoyl]-2-(3,4-dimethylbenzyl) piperazine hydrochloride] | > 90 | 
Cc1ccc(C[C@@H]2CN(C(=O)/C=C/C3CCCCC3)CCN2C(=O)c2cc(C(F)(F)F)cc(C(F)(F)F)c2)cc1C [Example 17-60, (2R)-1-[3,5-Bis(trifluoromethyl)benzoyl]-2-(3,4-dimethylbenzyl)-4-(3-cyclohexyl-trans-acryloyl)piperazine] |  | > 90
CN(C)C(=O)N1CCN(C(=O)c2cc(C(F)(F)F)cc(C(F)(F)F)c2)[C@H](Cc2c[nH]c3ccccc23)C1 [Example 19-1, (2R)-1-[3,5-Bis(trifluoromethyl)benzoyl]-2-(1H-indol-3-yl-methyl) -4-(N,N-dimethylaminocarbonyl)piperazine] | > 90 | 
O=C(/C=C/c1ccc([N+](=O)[O-])cc1)N1CCN(C(=O)c2cc(C(F)(F)F)cc(C(F)(F)F)c2)[C@H](Cc2ccccc2)C1 [Example 17-24, (2R)-2-Benzyl-1-[3,5-bis(trifluoromethyl)benzoyl]-4-(4-nitro-trans-cinnamoyl)piperazine] | > 90 | 
O=C(C1CC1)N1CCN(C(=O)c2cc(C(F)(F)F)cc(C(F)(F)F)c2)[C@H](Cc2c[nH]c3ccccc23)C1 [Example 17-56, (2R)-1-[3,5-Bis(trifluoromethyl)benzoyl]-4-(cyclo-propylcarbonyl)-2-(1H-indol-3-yl-methyl)piperazine] |  | > 90
O=C(c1cc(C(F)(F)F)cc(C(F)(F)F)c1)N1CCNC[C@H]1Cc1ccccc1 [Example 7-7] | > 90 | 
CC(=O)N1CCN(C(=O)c2cc(C(F)(F)F)cc(C(F)(F)F)c2)[C@H](Cc2ccc(C)c(C)c2)C1 [Example 19-10, (2R)-4-Acetyl-1-[3,5-bis(trifluoromethyl)benzoyl]-2-(3,4-dimethylbenzyl)piperazine] | > 90 | 
CNC(=O)CN1CCN(C(=O)c2cc(C(F)(F)F)cc(C(F)(F)F)c2)[C@H](Cc2c[nH]c3ccccc23)C1 [Example 26, (2R)-1-[3,5-bis (trifluoromethyl)benzoyl]-2-(1H-indol-3-yl-methyl)-4-(N-methylcarbamoylmethyl)piperazine hydrochloride] |  | > 90
CN(C)C(=O)N1CCN(C(=O)c2cc(C(F)(F)F)cc(C(F)(F)F)c2)[C@H](Cc2ccccc2)C1 [Example 19-4, (2R)-2-Benzyl-1-[3,5-bis(trifluoromethyl)benzoyl]-4-(N,N-dimethylcarbamoyl)piperazine] | > 90 | 
CN1CCN(NC(=O)CN2CCN(C(=O)c3cc(C(F)(F)F)cc(C(F)(F)F)c3)[C@H](Cc3c[nH]c4ccccc34)C2)CC1 [Example 77, (2R)-1-[3,5-bis(trifluoromethyl)benzoyl]-2-(1H-indol-3-ylmethyl)-4-[N-(4-methyl-1-piperazinyl)carbamoylmethyl]piperazine] |  | > 90
O=C(CCCc1c[nH]c2ccccc12)N1CCN(C(=O)c2cc(C(F)(F)F)cc(C(F)(F)F)c2)[C@H](Cc2ccccc2)C1 [Example 17-11, (2R)-2-Benzyl-1-[3,5-bis(trifluoromethyl)benzoyl]-4-[4-(1H-indol-3-yl)butyryl]piperazine] | > 90 | 
CC(=O)Nc1nc(/C=C/C(=O)N2CCN(C(=O)c3cc(C(F)(F)F)cc(C(F)(F)F)c3)[C@H](Cc3c[nH]c4ccccc34)C2)cs1 [Example 21-3, (2R)-4-[3-[2-(Acetylamino)thiazol-4-yl]-trans-acryloyl]-1-[3,5-bis(trifluoromethyl)benzoyl]-2-(1H-indol-3-yl-methyl)piperazine] |  | > 90
CS(=O)(=O)N1CCN(C(=O)c2cc(C(F)(F)F)cc(C(F)(F)F)c2)[C@H](Cc2c[nH]c3ccccc23)C1 [Example 19-13, (2R)-1-[3,5-Bis(trifluoromethyl)benzoyl]-2-(1H-indol-3-yl-methyl)-4-mesylpiperazine] |  | > 90
CCCC(=O)Nc1nc(CN2CCN(C(=O)c3cc(C(F)(F)F)cc(C(F)(F)F)c3)[C@H](Cc3c[nH]c4ccccc34)C2)cs1 [Example 79-6] |  | > 90
O=C(/C=C/c1cccnc1)N1CCN(C(=O)c2cc(C(F)(F)F)cc(C(F)(F)F)c2)[C@H](Cc2c[nH]c3ccccc23)C1 [Example 17-57, (2R)-1-[3,5-Bis(trifluoromethyl)benzoyl]-2-(1H-indol-3-yl-methyl)-4-[3-(3-pyridyl)-trans-acryloyl]-piperazine] |  | > 90
O=C(CCCc1ccccc1)N1CCN(C(=O)c2cc(C(F)(F)F)cc(C(F)(F)F)c2)[C@H](Cc2ccccc2)C1 [Example 17-5, (2R)-2-Benzyl-1-[3,5-bis(trifluoromethyl)benzoyl]-4-(4-phenylbutyryl)piperazine] | > 90 | 
O=C(/C=C/c1ccccc1)N1CCN(C(=O)c2cc(C(F)(F)F)cc(C(F)(F)F)c2)[C@H](Cc2c[nH]c3ccccc23)C1 [Example 17-1, (2R)-1-[3,5-Bis(trifluoromethyl)benzoyl]-2-(1H-indol-3-yl-methyl)-4-(trans-cinnamoyl)piperazine] | > 90 | 
O=C(CCc1ccccc1)N1CCN(C(=O)c2cc(C(F)(F)F)cc(C(F)(F)F)c2)[C@H](Cc2ccccc2)C1 [Example 17-4, (2R)-2-Benzyl-1-[3,5-bis(trifluoromethyl)benzoyl]-4-(3-phenylpropionyl)piperazine] | > 90 | 
O=C(/C=C/c1ccc(F)cc1)N1CCN(C(=O)c2cc(C(F)(F)F)cc(C(F)(F)F)c2)[C@H](Cc2c[nH]c3ccccc23)C1 [Example 17-2, (2R)-1-[3,5-Bis(trifluoromethyl)benzoyl]-2-(1H-indol-3-yl-methyl)-4-(4-fluoro-trans-cinnamoyl)piperazine] | > 90 | 

Source: patent publication US5883098A, “Piperazine derivatives” (Fujisawa Pharmaceutical Co., Ltd., priority 1993, dated 1999)
